{"source": "patent US20030216471A1", "about": "“Retinoid formulations for aerosolization and inhalation” (priority 2003, published 2003)", "key": {"TGase II": {"test_system": "TGase II", "experiment": "TGase II activity in cultured human breast cancer MCF-7 cells", "assay_type": "cell-based", "method": "Cells were harvested and Transglutaminase II activity was measured as described below. Nebulizer solution, inhalation procedures, details of animal housing are described below.\nCultured cells were placed in 100 μl scraping buffer [A: 2800 μl (400 μl 0.5M Na-Phosphate, 500 μl 0.01M EDTA, 100 μl 1M DTT, 9 ml PBS total 10 ml)+B:700 μl (10 μl 20 mg/ml PMSF 790 μl PBS total 800 μl)] for each dish. Cells were broken by a sonicator and kept in ice until used. TGase II assay was conducted as described below and previously {8217}.\nEnzyme assay mixtures were prepared by adding 80 μl of SUBSTRATE mixture (322.8 μl H2O, 120 μl 0.5M NaBorate, 60 μl 0.01M EDTA, 60 μl 0.1M CaCl2, 6 μl 1M DTT, 240 μl dimethyl casein, 30 μl Triton X-100, 1.21 μl [^3H]-Putrescine, 120 μl Putrescine) to 20 μl sample, 20 μl scraping buffer for blank control, 20 μl (18 μl scraping buffer+2 μl TGase II) for positive control. Samples were mixed in 15 ml tubes, the tubes were shaken before putting them into a 28° C. water bath for 30 minutes. Reactions were slowed down in an ice bath. 80 μl of the incubation mixture was adsorbed onto paper disks. These were immediately dropped into cold 10% TCA (0.1% Putrescine) and washed with agitation for 7 minutes, followed by 2 additional washes with 5% TCA (0.05% putrescine) for 5-7 minutes, and once more with cold (−20° C.) 95% ethanol for 5 minutes. Paper disks were dried and placed into 5 ml Aquasol, and counted in a Liquid Scintillation Counter. Protein concentration determination was conducted by the Bradford method."}, "RARα [1]": {"test_system": "RARα", "experiment": "Western blot of SENCAR mouse liver, dietary RA 75 weeks, RAR α", "assay_type": "in vivo", "conditions": "for RARα densitometry of Western blots: liver", "method": "(§1) Tissues were collected, frozen in dry ice and kept at −70° C. until used. 500 mg aliquots were diced in small pieces and homogenized in 300 μl of cold PBS, using the hand held homogenizer for 2˜3 minutes. Sample and washes were centrifuged at 5000×g for 20 minutes. The pellet was suspended in 400 μl of ice-cold Buffer A [2 μl 0.5M EDTA, 10 μl 100 mM EGTA, 50 μl 100MM PMSF, 10 μl 1M DTT, 10 ml (10 mM HEPES pH 7.9+10 mM KCl)], and left at ice temperature for 15 minutes. 25 μl of 10% solution of NP-40 was added and samples were mixed in a vortex vigorously for 10 seconds. Samples were centrifuged at 14,000×g for 1 minute at 4° C. and the pellet treated once more in this fashion (resuspended etc.). The supernatant was removed and 100 μl of ice-cold Buffer C [4 μl 0.5M EDTA, 20 μl 100 mM EGTA, 20 μl 100 mM PMSF, 2 μl 1M DTT, 2 ml (20 mM HEPES pH 7.9+0.4M NaCl)] was added. Pellets were resuspended by tapping gently on the bottom of the Eppendorf tubes. Samples were rocked vigorously in a bucket of ice on an orbital shaker for 30 minutes. Samples were centrifuged at 14,000×g for 5 minutes at 4° C.\n(§2) Samples were prepared by adding one part of the Sample Buffer to one part of the sample and mixing well. Samples were heated at 95° C. for 5 minutes to induce denaturation. 5 μl of Rainbow Standard and 5 μl of Biotinylated Molecular Marker were added to parallel wells. 20 μg protein per sample was loaded in each lane. Electrophoresis was performed with voltage set at 125V for about 1˜1.5 hours. Gel transfer was executed at 25V for 2 hours. The membrane was stained in Ponceau S. for 5 minutes and destained with one wash of 5% acetic acid. The membrane was then washed in TBS solution until the staining disappeared. Membranes were incubated in 1 ml blocking solution and 9 ml TBS for 60 minutes. Membranes were incubated in 1 ml of blocking solution and 19 ml TBS along with 20 μl primary antibody solution overnight (dilution of 1:1000). Membranes were washed in PBS-Tween 20, 3 times for 10 minutes each. […]"}, "RARβ": {"test_system": "RARβ", "experiment": "Western blot of SENCAR mouse liver, dietary RA 75 weeks, RAR β", "assay_type": "in vivo", "conditions": "for RARβ densitometry of Western blots: liver", "method": "as §1, §2"}, "RARγ": {"test_system": "RARγ", "experiment": "Western blot of SENCAR mouse liver, dietary RA 75 weeks, RAR γ", "assay_type": "in vivo", "conditions": "for RARγ densitometry of Western blots: liver", "method": "as §1, §2"}, "RARα [2]": {"test_system": "RARα", "experiment": "Immunohistochemical analysis of SENCAR mouse liver, dietary RA", "assay_type": "in vivo", "conditions": "pharmacological RA diet compared to physiological RA, 75 weeks", "method": "Liver tissue (approximately 300 mg) was fixed in 10% formalin, embedded in paraffin and 5 μm sections were used for immunohistochemistry. Staining for RAR was similar to our previously described protocol {8656}. ABC kit Mouse/Rabbit IgG and DAB Substrate kit were used (Vector Laboratories Inc., 30 Ingold Road Burlingame, Calif.)."}, "RAR α": {"test_system": "RAR α", "experiment": "Time course of dietary RA effect on SENCAR mouse liver RAR α", "assay_type": "in vivo", "conditions": "pharmacological dietary RA over physiological RA, day 1", "method": "(§3) SENCAR mice (30) were divided into six experimental groups.\nas §1\n(§4) Samples were prepared by adding one part of the Sample Buffer to one part of the sample and mixing well. Samples were heated at 95° C. for 5 minutes to induce denaturation. […]"}, "RAR β": {"test_system": "RAR β", "experiment": "Time course of dietary RA effect on SENCAR mouse liver RAR β", "assay_type": "in vivo", "conditions": "pharmacological dietary RA over physiological RA, day 1", "method": "as §3, §1, §4"}, "RAR γ": {"test_system": "RAR γ", "experiment": "Time course of dietary RA effect on SENCAR mouse liver RAR γ", "assay_type": "in vivo", "conditions": "pharmacological dietary RA over physiological RA, day 1", "method": "as §3, §1, §4"}, "lung tissue RARs": {"test_system": "lung tissue RARs", "experiment": "SENCAR mouse lung tissue RARs, dietary RA", "assay_type": "in vivo", "method": "as §3, §1, §4"}, "[3]": {"conditions": "dietary RA 30 μg/g vs 3 μg/g diet, male SENCAR mice"}}, "note": "“Also recorded” adds a separate entry of the source.", "data": [{"compound": "CC1=C(/C=C/C(C)=C/C=C/C(C)=C/C(=O)O)C(C)(C)CCC1", "note": "[RA, all-trans-retinoic acid]", "values": [{"measurement": "TGase II Activity", "setting": "TGase II; MCF-7 cells treated at 10^−6 M for 72 hours, DMSO control 0.183", "value": "1.359+/−0.098 picomoles/μg protein/30 minutes"}, {"measurement": "stimulating TGase II activity", "setting": "TGase II; MCF-7 cells, 10^−6 M, 72 hours, over DMSO", "value": 7.4, "unit": "Fold"}, {"measurement": "upregulation of liver RAR (first named, α)", "setting": "RARα [1]; [3]", "value": 21.8, "unit": "fold"}, {"measurement": "RARα densitometry of Western blots", "setting": "RARα [1]; RA diet 3 μg/g", "value": "12.1+/−7.2 IDV"}, {"measurement": "RARα densitometry of Western blots", "setting": "RARα [1]; RA diet 30 μg/g", "value": "264+/−21.3 IDV"}, {"measurement": "upregulation of liver RAR (second named, β)", "setting": "RARβ; [3]", "value": 13.5, "unit": "fold"}, {"measurement": "RARβ densitometry of Western blots", "setting": "RARβ; RA diet 3 μg/g", "value": "18.9+/−7.4 IDV"}, {"measurement": "RARβ densitometry of Western blots", "setting": "RARβ; RA diet 30 μg/g", "value": "254+/−31.9 IDV"}, {"measurement": "upregulation of liver RAR (third named, γ)", "setting": "RARγ; [3]", "value": 12.5, "unit": "fold"}, {"measurement": "RARγ densitometry of Western blots", "setting": "RARγ; RA diet 3 μg/g", "value": "23.1+/−6.7 IDV"}, {"measurement": "RARγ densitometry of Western blots", "setting": "RARγ; RA diet 30 μg/g", "value": "288+/−17.4 IDV"}, {"measurement": "RARα immunohistochemical staining in liver nuclei", "setting": "RARα [2]", "value": "striking increase of RAR expression; also recorded: marked increase in staining"}, {"measurement": "stimulation of liver RAR (first named, α)", "setting": "RAR α", "value": 2, "unit": "fold"}, {"measurement": "stimulation of liver RAR (second named, β)", "setting": "RAR β", "value": 4, "unit": "fold"}, {"measurement": "stimulation of liver RAR (third named, γ)", "setting": "RAR γ", "value": 2.1, "unit": "fold"}, {"measurement": "effect of dietary RA on lung tissue RARs", "setting": "lung tissue RARs; long term feeding of 30 μg/g diet, SENCAR mouse", "value": "failed to induce"}, {"measurement": "effect of dietary RA on lung tissue RARs", "setting": "lung tissue RARs; time course, 1 to 28 days, 30 μg/g diet, not shown", "value": "without any measurable effect; also recorded: no effect"}]}]}
